The text below walks through data of US9545386B2, “Methods of treating infectious diseases” (SLIPPERY ROCK UNIVERSITY FOUNDATION, INC., priority 2007, dated 2017).

One experiment deals with Streptococcus pyogenes. Nature of the experiment: Antibacterial MIC/MBC, 96 well broth dilution. Format: cell-based. The settings on record: S. pyogenes, 24 hr in vitro, DMSO as solvent. Here is the method:
(§1) Bacterial cultures were obtained from the American Type Culture Collection (ATCC), except for Streptococcus pyogenes, which was started from a Difco Bactrol disc. The other organisms were Enterococcus faecalis, Staphylococcus aureus, Escherichia coli, Salmonella typhimurium and Pseudomonas aeruginosa. Cultures were grown in Luria-Bertani (LB) broth. Fungi were obtained from Carolina Biological Supply Company (Aspergillus niger, Candida albicans and Cryptococcus neoformans); Presque Isle Cultures, Erie Pa. (Microsporum gypseum); or from ATCC (Penicillium marneffei). Fungal cultures were maintained in Sabouraud dextrose broth (SDB) or agar (SDA). All media components came from Difco.
(§2) Tests were done in flat-bottomed 96 well cell culture plates (Costar). All samples were done in duplicate. Eryngial was suspended in culture medium plus 0.04% Triton-X to make a 2% (20 mg/ml) suspension, which was passed through a 0.22 μm filter to make a uniform emulsion. Serial doubling dilutions of eryngial in culture medium plus 0.04% Triton-X were prepared, and 75 μl was added to each well. 75 μl of cell or spore suspensions in culture medium also were added to each well. The final concentration of Triton-X was 0.02%, and the final concentration of eryngial was 1% (10 mg/ml) at the highest concentration tested.
(§3) Dimethyl sulfoxide (DMSO) also was used as a solvent for eryngial. A solution of 12.5% eryngial in DMSO was the initial solution. Doubling dilutions were carried out in DMSO. The DMSO-eryngial solutions were diluted 100-fold into growth medium, resulting in a final concentration of 1% DMSO, and 0.125% (1,250 μg/ml) eryngial as the highest concentration tested.
(§4) Overnight bacterial cultures in LB medium were diluted into fresh LB to an OD600 of 0.02 to 0.03, and then diluted 1000-fold again in LB. […] Blank wells for each concentration of eryngial were prepared with plain culture medium added.
(§5) The 96 well plates were incubated at 37° for 24 hr (in a candle jar for S. pyogenes), and the OD630 was read on an EL800 universal microplate reader (Bio-Tek Instruments). Readings from duplicate wells were averaged, and readings from duplicate blank wells for each concentration of eryngial were subtracted to generate the final values. The minimum inhibitory concentration (MIC, μg/ml) was defined as the well with the highest dilution of eryngial in which no growth was observed.
(§6) To determine whether eryngial was merely inhibiting growth of the bacteria and fungi, or whether it also was having a killing effect, the minimum bactericidal concentrations (MBC, μg/ml) or minimum fungicidal concentrations (MFC, μg/ml) were determined. This was done by removing a 50 μl sample from a well after 24 hr (bacteria) or 96 hr (fungi) and diluting the samples in 5 ml of fresh culture medium. These tubes then were incubated at the appropriate temperature for 24-96 hr and observed for any signs of growth.

Another experiment has as its system Staphylococcus aureus. The experiment in a line: Antibacterial MIC/MBC, 96 well broth dilution. Format: cell-based. The settings on record: S. aureus, 24 hr in vitro, 0.02% Triton X-100. As to the method: as §1, §2, §3, §4, §5, §6
The next experiment concerns Enterococcus faecalis. Nature of the experiment: Antibacterial MIC/MBC, 96 well broth dilution. The format is cell-based. The settings on record: E. faecalis, 24 hr in vitro, 0.02% Triton X-100. As to the method:
as §1, §2, §3, §4, §5, §6

The test system of a further experiment is Microsporum gypseum. Nature of the experiment: Antifungal MIC/MFC, 96 well broth dilution. The format is cell-based. The settings on record: Nannizzia gypsea, M. gypseum, 48-96 hr in vitro. As to the method:
as §1, §2, §3
(§7) The yeast form fungi, Candida albicans and Cryptococcus neoformans, were grown overnight in SDB. Cell density was determined by counting in a hemacytometer. Cells were diluted in fresh SDB to a density of 10^4/ml, and 75 μl, or 7.5×10^2 cells, was added to each well. The filamentous form fungi, Aspergillus niger, Microsporum gypseum and Penicillium marneffei, were grown on SDA until spores formed. The surface of the culture was rinsed vigorously with sterile distilled water to make a spore suspension, which was counted with a hemacytometer. The spores were diluted into SDB at 10^4/ml, and 75 μl, or 7.5×10^2 spores, were added to each well. The 96 well plates were incubated at room temperature in a humidified chamber for up to 96 hr, and culture growth was monitored microscopically. Growth was documented by photomicrographs at 24 hr intervals, and by determining OD630 in the microplate reader as for the bacterial cultures.
as §6

Another experiment deals with Candida albicans. Nature of the experiment: Antifungal MIC/MFC, 96 well broth dilution. The format is cell-based. The settings on record: C. albicans, 48-96 hr in vitro. Here is the method: as §1, §2, §3, §7, §6
In a further experiment the test system is Aspergillus niger. The experiment in a line: Antifungal MIC/MFC, 96 well broth dilution. The format is cell-based. The settings on record: A. niger; MIC and MFC not determined. Here is the method:
as §1, §2, §3, §7, §6

Another experiment deals with Cryptococcus neoformans. The experiment in a line: Antifungal MIC/MFC, 96 well broth dilution. The format is cell-based. The settings on record: C. neoformans, 48-96 hr in vitro. Here is the method:
as §1, §2, §3, §7, §6

A further experiment has as its system Penicillium marneffei. The experiment in a line: Antifungal MIC/MFC, 96 well broth dilution. The settings on record: Talaromyces marneffei, P. marneffei, 48-96 hr in vitro. Format: cell-based. As to the method:
as §1, §2, §3, §7, §6

A further experiment has as its system S. stercoralis L3 larvae. The settings on record: after 120 hr of incubation, Forbes et al. (unpublished); cited from earlier work.

Converted amounts (≈) assume the structure as drawn.

Consider `CCCCCCCCC/C=C/C=O` [Eryngial, trans-2-dodecenal], for which the MBC with Streptococcus pyogenes stood at 156 µg/mL (≈ 856 µM); against Staphylococcus aureus, 78 µg/mL (≈ 428 µM); against Enterococcus faecalis, 313 µg/mL (≈ 1720 µM); against Microsporum gypseum (table title says MFCs), 39 µg/mL (≈ 214 µM); in the experiment with Candida albicans (table title says MFCs), 391 µg/mL (≈ 2140 µM); in the experiment on Cryptococcus neoformans (table title says MFCs), 78 µg/mL (≈ 428 µM). In the experiment with Penicillium marneffei (table title says MFCs), this compound registered an MBC of 39 µg/mL (≈ 214 µM). Besides, the MIC with Streptococcus pyogenes stood at 156 µg/mL (≈ 856 µM); with Staphylococcus aureus it was 78 µg/mL (≈ 428 µM); in the experiment with Enterococcus faecalis, 313 µg/mL (≈ 1720 µM); against Microsporum gypseum, 39 µg/mL (≈ 214 µM); in the experiment on Candida albicans, 391 µg/mL (≈ 2140 µM); with Cryptococcus neoformans it was 78 µg/mL (≈ 428 µM). The same compound gave an MIC with Penicillium marneffei of 39 µg/mL (≈ 214 µM). Besides, in the experiment with Aspergillus niger, the “growth in dilutions of the test compound” value is given as “growth, albeit reduced, occurred in all dilutions”. The “increase in effectiveness over ivermectin based on time (hr) taken to kill 50% (LT50)” value with S. stercoralis L3 larvae was 7.1 fold.
